Reference: patent publication US20250059172A1, “INDAZOLE COMPOUND AND PHARMACEUTICAL” (NIPPON SHINYAKU CO., LTD., priority 2021, published 2025)
Counter-ions that a name gives are not always drawn.

What was measured:
[1] = biological target: human mPGES-1 (Homo sapiens (Human), UniProt O14684); assay: mPGES-1 inhibitory activity test; type: biochemical; details: for IC50: microsomes of CHO-K1 cells expressing human mPGES-1, PGH2 1 μM, PGE2 by HTRF, read-out: mPGES-1 inhibition (IC50 nM); for inhibition at 0.01 µM: 10 nM test compound; for inhibition at 0.1 µM: 100 nM test compound
Chain of human mPGES-1 (O14684 whole entry): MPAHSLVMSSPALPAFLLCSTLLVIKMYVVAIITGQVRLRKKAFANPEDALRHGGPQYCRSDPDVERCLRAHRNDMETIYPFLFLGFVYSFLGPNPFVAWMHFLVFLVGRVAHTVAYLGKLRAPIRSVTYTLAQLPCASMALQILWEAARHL
Procedure, shortened: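 PGE2 formation was quantified by HTRF and reported as percent inhibition at 10 and 100 nM compound or as IC50. The 60-second reaction at 4° C used 1 μM PGH2, after a 20-minute 4° C preincubation of compound (1% DMSO final) with glutathione-supplemented (2.5 mM, pH 7.4) microsomes. The microsomes were from transiently transfected CHO-K1 cells expressing human mPGES-1.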

[2] = test system: human A549 cells; assay: Inhibition test of PGE2 production using human A549 cells; type: cell-based; details: IL-1β stimulated A549 cells, 24 h, PGE2 by HTRF, read-out: A549 cell inhibition of PGE2 production IC50
Procedure, shortened: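 PGE2 (HTRF) and PGF2a (EIA) were quantified in medium after 24 h, 37°C IL-1β stimulation (5 ng/well) of human A549 cells that had received test compound 60 min beforehand (0.1% DMSO, 3% FBS RPMI). IC50 relative to the window between IL-1β-stimulated and unstimulated controls.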

## COc1ccc(-n2ncc3c(NC(=O)c4cc(CNC(=O)C(C)(C)C)ccc4Cl)cccc32)cc1C(F)(F)F [Example 62, 2-Chloro-5-{[(2,2-dimethylpropanoyl)amino]methyl}-N-{1-[4-methoxy-3-(trifluoromethyl)phenyl]-1H-indazol-4-yl}benzamide]
[1]
  IC50: 2.4 nM
[2]
  IC50: 3.6 nM

## CC(C)(C)C(=O)NCc1ccc(Cl)c(C(=O)Nc2cccc3c2cnn3Cc2ccc(C(F)(F)F)cc2)c1 [Example 92]
[1]
  IC50: 5.4 nM
[2]
  IC50: 4.2 nM

## Cc1cc(-n2ncc3c(NC(=O)c4cc(CNC(=O)C(C)(C)C)ccc4Cl)cccc32)ccn1 [Example 58, 2-Chloro-5-{[(2,2-dimethylpropanoyl)amino]methyl}-N-[1-(2-methylpyridin-4-yl)-1H-indazol-4-yl]benzamide hydrochloride]
[1]
  IC50: 5.9 nM
[2]
  IC50: 5.9 nM

## CC(C)(C)C(=O)NCc1ccc(Cl)c(C(=O)Nc2cccc3c2cnn3CC2CCCCC2)c1 [Example 100, 2-Chloro-N-[1-(cyclohexylmethyl)-1H-indazol-4-yl]-5-{[(2,2-dimethylpropanoyl)amino]methyl}benzamide]
[1]
  IC50: 1 nM
[2]
  IC50: 1.9 nM

## COc1ccc(-n2ncc3c(NC(=O)c4cc(CNC(=O)C(C)(C)C)ccc4Cl)cccc32)cc1OC [Example 67, 2-Chloro-N-[1-(3,4-dimethoxyphenyl)-1H-indazol-4-yl]-5-{[(2,2-dimethylpropanoyl)amino]methyl}benzamide]
[1]
  IC50: 3.7 nM
[2]
  IC50: 5.1 nM

## O=C(Nc1cccc2c1cnn2-c1cncc(C(F)(F)F)c1)c1cc(CNC(=O)C2CC2)ccc1Cl [Example 11, 2-Chloro-5-{[(cvclopropylcarbonyl)amino]methyl}-N-{1-[5-(trifluoromethyl)pyridin-3-yl]-1H-indazol-4-yl}benzamide]
[1]
  IC50: 2.9 nM
[2]
  IC50: 3.4 nM

## COc1cc(-n2ncc3c(NC(=O)c4cc(CNC(=O)C(C)(C)CO)ccc4Cl)cccc32)ccn1 [Example 164, 2-Chloro-5-{[(3-hydroxy-2,2-dimethylpropanoyl)amino]methyl}-N-[1-(2-methoxypyridin-4-yl)-1H-indazol-4-yl]benzamide]
[1]
  inhibition at 0.01 µM: 69%
  inhibition at 0.1 µM: 100%
[2]
  IC50: 28.4 nM

## CC(C)(C)C(=O)NCc1ccc(Cl)c(C(=O)Nc2cccc3c2cnn3-c2cccc(OC(F)(F)F)c2)c1 [Example 71, 2-Chloro-5-{[(2,2-dimethylpropanoyl)amino]methyl}-N-{1-[3-(trifluoromethoxy)phenyl]-1H-indazol-4-yl}benzamide]
[1]
  IC50: 0.1 nM
[2]
  IC50: 0.6 nM

## CN(C)CCC(=O)NCc1ccc(Cl)c(C(=O)Nc2cccc3c2cnn3-c2ccc(C(F)(F)F)cc2)c1 [Example 35, 2-Chloro-5-{[(N,N-dimethyl-p-alanyl)amino]methyl}-N-{1-[4-(trifluoromethyl)phenyl]-1H-indazol-4-yl}benzamide hydrochloride]
[1]
  IC50: 116 nM
[2]
  IC50: 933 nM

## O=C(NCc1ccc(Cl)c(C(=O)Nc2cccc3c2cnn3-c2ccc(C(F)(F)F)cc2)c1)c1ccco1 [Example 45, N-[4-chloro-3-({1-[4-(trifluoromethyl)phenyl]-1H-indazol-4-yl}carbamoyl)benzyl]furan-2-carboxamide]
[1]
  IC50: 1.2 nM
[2]
  IC50: 37.6 nM

## O=C(Nc1cccc2c1cnn2-c1cccc(C(F)(F)F)c1)c1cc(CNC(=O)C2CC2)ccc1Cl [Example 3, 2-Chloro-5-{[(cyclopropylcarbonyl)amino]methyl}-N-{1-[3-(trifluoromethyl)phenyl]-1H-indazol-4-yl}benzamide]
[1]
  IC50: 1.2 nM
[2]
  IC50: 0.7 nM

## O=C(Nc1cccc2c1cnn2-c1ccc(OC(F)(F)F)cc1)c1cc(CNC(=O)C2CCCC2)ccc1Cl [Example 115, 2-Chloro-5-{[(cyclopentylcarbonyl)amino]methyl}-N-{1-[4-(trifluoromethoxy)phenyl]-1H-indazol-4-yl}benzamide]
[1]
  inhibition at 0.01 µM: 61%
[2]
  IC50: 1.2 nM

## CC(C)(C)CC(=O)NCc1ccc(Cl)c(C(=O)Nc2cccc3c2cnn3-c2ccc(Cl)cc2)c1 [Example 145, 2-Chloro-N-[1-(4-chlorophenyl)-1H-indazol-4-yl]-5-([(3,3-dimethylbutanoyl)amino]methyl)benzamide]
[1]
  inhibition at 0.01 µM: 92%
[2]
  IC50: 6.3 nM

## O=C(Nc1cccc2c1cnn2-c1ccc(C(F)(F)F)cc1)c1cc(CNC(=O)C2CCOC2)ccc1Cl (centres unmarked) [Example 34, N-[4-chloro-3-({1-[4-(trifluoromethyl)phenyl]-1H-indazol-4-yl}carbamoyl)benzyl]-tetrahydrofuran-3-carboxamide]
[1]
  IC50: 31 nM
[2]
  IC50: 20.7 nM

## CC(C)n1ncc2c(NC(=O)c3cc(CNC(=O)C(C)(C)C)ccc3Cl)cccc21 [Example 102, 2-Chloro-5-{[(2,2-dimethylpropanoyl)amino]methyl}-N-[1-(propan-2-yl)-1H-indazol-4-yl]benzamide]
[1]
  IC50: 3.1 nM
[2]
  IC50: 20.7 nM

## CC(C)(C)C(=O)NCc1ccc(C(F)(F)F)c(C(=O)Nc2cccc3c2cnn3C2CC2)c1 [Example 285, 5-{[(2,2-Dimethylpropanoyl)amino]methyl}-N-(1-cyclopropyl-1H-indazol-4-yl)-2-(trifluoromethyl)benzamide]
[1]
  inhibition at 0.01 µM: 75%
[2]
  IC50: 7.7 nM

## COc1ccc(-n2ncc3c(NC(=O)c4cc(CNS(=O)(=O)C5CC5)ccc4Cl)cccc32)cn1 [Example 275, 2-Chloro-5-{[(cyclopropylsulfonyl)amino]methyl}-N-[1-(6-methoxypyridin-3-yl)-1H-indazol-4-yl]benzamide]
[1]
  inhibition at 0.01 µM: 66%
  inhibition at 0.1 µM: 91%
[2]
  IC50: 3.9 nM

## O=C(Nc1cccc2c1cnn2Cc1ccccc1)c1cc(CNC(=O)C2CC2)ccc1Cl [Example 109, N-(1-benzyl-1H-indazol-4-yl)-2-chloro-5-{[(cyclopropylcarbonyl)amino]methyl}benzamide]
[1]
  IC50: 2.04 nM
[2]
  IC50: 119 nM

## Cc1ccc(-n2ncc3c(NC(=O)c4cc(CNC(=O)CC(C)(C)C)ccc4Cl)cccc32)cc1C(F)(F)F [Example 254, 2-Chloro-5-{[(3,3-dimethylbutanoyl)amino]methyl}-N-{1-[4-methyl-3-(trifluoromethyl)phenyl]-1H-indazol-4-yl}benzamide]
[1]
  inhibition at 0.01 µM: 100%
  inhibition at 0.1 µM: 99%
[2]
  IC50: 0.7 nM

## Cc1ncc(-n2ncc3c(NC(=O)c4cc(CNC(=O)C(C)(C)C)ccc4Cl)cccc32)cn1 [Example 52, 2-Chloro-5-{[(2,2-dimethylpropanoyl)amino]methyl}-N-[1-(2-methylpyrimidin-5-yl)-1H-indazol-4-yl]benzamide]
[1]
  IC50: 3.6 nM
[2]
  IC50: 20.9 nM

## CC(C)(C)CC(=O)NCc1ccc(Cl)c(C(=O)Nc2cccc3c2cnn3-c2ccc(C(F)(F)F)cc2)c1 [Example 20, 2-Chloro-5-{[(3,3-dimethylbutanoyl)amino]methyl}-N-{1-[4-(trifluoromethyl)phenyl]-1H-indazol-4-yl}benzamide]
[1]
  IC50: < 1 nM
[2]
  IC50: 2.8 nM

## CC(C)(C)CC(=O)NCc1ccc(Cl)c(C(=O)Nc2cccc3c2cnn3-c2cccc(OC(F)(F)F)c2)c1 [Example 121, 2-Chloro-5-{[(3,3-dimethylbutanoyl)amino]methyl}-N-{1-[3-(trifluoromethoxy)phenyl]-1H-indazol-4-yl}benzamide]
[1]
  inhibition at 0.01 µM: 48%
[2]
  IC50: 10 nM
